# Experimental data taken from patent publication US11746116B2, “Antibiotic resistance breakers” (KING'S COLLEGE LONDON, priority 2017, dated 2023).
# Values joined by “and” are separate entries in the source; they are usually repeats but may differ in a detail not shown here. Equal entries are not always repeated. Where two headings read alike, the source gives them in different places.
# Key:
# VSE775 = assay: MIC, microdilution broth method; assay type: cell-based, Enterococcus faecalis; set-up: MIC, VSE775: unit not given beside the values; settings: for MIC, VSE775: ESKAPE panel, Gram-positive
# EC12923 = assay: MIC, microdilution broth method; assay type: cell-based; settings: for MIC, EC12923: ESKAPE panel, Gram-negative, in µg/mL
# EMRSA16 = assay: MIC, microdilution broth method; assay type: cell-based, Staphylococcus aureus
# VRE12204 = assay: MIC, microdilution broth method; assay type: cell-based, Enterococcus faecium; settings: in µg/mL; for MIC, VRE12204: ESKAPE panel, Gram-positive; for MIC: VRE12204
# VRE12201 = assay: MIC, microdilution broth method; assay type: cell-based, Enterococcus faecalis; settings: for MIC, VRE12201: ESKAPE panel, Gram-positive
# KP13368 = assay: MIC, microdilution broth method; assay type: cell-based; settings: for MIC, KP13368: ESKAPE panel, Gram-negative
# PA13437 = assay: MIC, microdilution broth method; assay type: cell-based; settings: for MIC, PA13437: ESKAPE panel, Gram-negative; for MIC: PA13437
# M6 = assay: MIC, microdilution broth method; assay type: cell-based; settings: for MIC, M6: ESKAPE panel, Gram-negative
# AYE = assay: MIC, microdilution broth method; assay type: cell-based, Acinetobacter baumannii; settings: for MIC, AYE: ESKAPE panel, Gram-negative
# PA01 = assay: MIC, microdilution broth method; assay type: cell-based, Pseudomonas aeruginosa; settings: for MIC, PA01: ESKAPE panel, Gram-negative
# MSSA9144 = assay: MIC, microdilution broth method; assay type: cell-based, Staphylococcus aureus; settings: for MIC, MSSA9144: ESKAPE panel, Gram-positive
# EMRSA15 = assay: MIC, microdilution broth method; assay type: cell-based, Staphylococcus aureus
# Ab17978 = assay: MIC, microdilution broth method; assay type: cell-based; settings: for MIC, Ab17978: ESKAPE panel, Gram-negative
# [1] = tested on: Staphylococcus aureus ATCC29213; assay: Murine thigh infection model, thigh bacterial burden; assay type: in vivo; settings: individual thigh samples, ICR mice
# SA4 = assay: MIC, extended Gram-positive panel; assay type: cell-based, S. aureus; settings: S. aureus SA4; gyrA, 84:S => L; grlA, 80:S => F
# SA1 = assay: MIC, extended Gram-positive panel; assay type: cell-based, S. aureus; settings: S. aureus SA1; gyrA, 84:S => L; grlA, 80:S => F
# SA9 = assay type: cell-based, S. aureus; settings: S. aureus SA9; gyrA, 84:S => L; grlA, 80:S => F
# SA5 = assay type: cell-based, S. aureus; settings: S. aureus SA5; gyrA, 84:S => L; grlA, 80:S => F
# SA6 = assay: MIC, extended Gram-positive panel; assay type: cell-based, S. aureus; settings: S. aureus SA6; gyrA, 84:S => V; grlA, 80:S => F
# SA2 = assay: MIC, extended Gram-positive panel; assay type: cell-based, S. aureus; settings: S. aureus SA2
# SA3 = assay type: cell-based, S. aureus; settings: S. aureus SA3; gyrA, 84:S => L; grlA, 80:S => F
# SA7 = assay: MIC, extended Gram-positive panel; assay type: cell-based, S. aureus; settings: S. aureus SA7; gyrA, 84:S => L; grlA, 80:S => F
# EF1 = assay: MIC, extended Gram-positive panel; assay type: cell-based, E.faecalis; settings: E.faecalis EF1
# SE1 = assay type: cell-based, S. epidermidis; settings: S. epidermidis SE1; in µg/mL
# SH1 = assay: MIC, extended Gram-positive panel; assay type: cell-based, S. haemolyticus; settings: S. haemolyticus SH1
# SA8 = assay: MIC, extended Gram-positive panel; assay type: cell-based, S. aureus; settings: S. aureus SA8; gyrA, 84:S => L; grlA, 80:S => F
# EF2 = assay: MIC, extended Gram-positive panel; assay type: cell-based, E.faecium; settings: E.faecium EF2; in µg/mL
# [2] = ESKAPE panel, Gram-positive, in µg/mL
# [3] = KP13368, Normal (no PMBN), in µg/mL
# [4] = PA01, Normal (no PMBN), in µg/mL
# [5] = Ab17978, Normal (no PMBN), in µg/mL
SMILES,"MIC, VSE775 (VSE775)","MIC, EC12923 (EC12923)","MIC, EMRSA16 (EMRSA16; [2])","MIC, VRE12204 (VRE12204)","MIC, VRE12201 (VRE12201; in µg/mL)","MIC, KP13368 (KP13368) [µg/mL]","MIC, PA13437 (PA13437) [µg/mL]","MIC, M6 (M6; in µg/mL)","MIC, AYE (AYE; in µg/mL)","MIC, PA01 (PA01; in µg/mL)","MIC, MSSA9144 (MSSA9144; in µg/mL)","MIC, EMRSA15 (EMRSA15; [2])","MIC, Ab17978 (Ab17978; in µg/mL)","MIC (VRE12201; VRE12201, in µg/mL)","MIC (M6; M6, Normal (no PMBN), in µg/mL)","MIC (MSSA9144; MSSA9144, in µg/mL)",MIC (Ab17978; [5]),also measured
"C[C@H]1COc2c(N3CC[C@H](Nc4cc(NC5CC5)ncn4)C3)c(F)cc3c(=O)c(C(=O)O)cn1c23 [KSN-L21, (S)-10-((S)-3-((6-(cyclopropylamino)pyrimidin-4-yl)amino)pyrrolidin-1-yl)-9-fluoro-3-methyl-7-oxo-2,3-dihydro-7H-[1,4]oxazino[2,3,4-ij]quinoline-6-carboxylic acid]",4,0.5,>32,16,1,> 32,> 32,16,>32,>32,0.5,32,2,–,–,–,–,–
"C[C@H]1COc2c(N3CC[C@@H](Nc4ncc(F)cn4)C3)c(F)cc3c(=O)c(C(=O)O)cn1c23 [KSN-L34, (S)-9-fluoro-10-((R)-3-((5-fluoropyrimidin-2-yl)amino)pyrrolidin-1-yl)-3-methyl-7-oxo-2,3-dihydro-7H-[1,4]oxazino[2,3,4-ij]quinoline-6-carboxylic acid]",≤0.125,0.125,1,1,≤0.125,32,> 32,2,4,4,≤0.125,0.5,≤0.125,–,–,–,–,"MIC (VSE775; Enterococcus faecalis, Enterococcus (VRE775), Gram-Positive, read-out: MIC): ≤ 0.125 µg/mL; MIC (EC12923; Escherichia coli (EC12923), Gram-Negative, read-out: MIC): 0.125 µg/mL; MIC, EMRSA16 (EMRSA16; EMRSA16 (Table 16, role of the terminal pyrimidine ring), in µg/mL): 1; MIC (EMRSA16; Staphylococcus aureus (EMRSA16), Gram-Positive (Table 14), read-out: MIC): 1 µg/mL; MIC (VRE12201; Enterococcus faecalis, Enterococcus (VRE12201), Gram-Positive, read-out: MIC): ≤ 0.125 µg/mL; MIC (KP13368; Klebsiella pneumoniae (KP13368), Gram-Negative, read-out: MIC): 32 µg/mL; MIC (M6; Klebsiella pneumoniae (M6), Gram-Negative, read-out: MIC): 2 µg/mL; MIC (AYE; Acinetobacter baumannii (AYE), Gram-Negative, read-out: MIC): 4 µg/mL; MIC (PA01; Pseudomonas aeruginosa (PA01), Gram-Negative, read-out: MIC): 4 µg/mL; MIC (MSSA9144; Staphylococcus aureus (MSSA9144), Gram-Positive, read-out: MIC): ≤ 0.125 µg/mL; MIC, EMRSA15 (EMRSA15; EMRSA15 (Table 16, role of the terminal pyrimidine ring), in µg/mL): 0.5; MIC (EMRSA15; Staphylococcus aureus, Staphylococcus aureus (EMRSA15), Gram-Positive (Table 14), read-out: MIC): 0.5 µg/mL; MIC (Ab17978; Acinetobacter baumannii (AB17978), Gram-Negative, read-out: MIC): ≤ 0.125 µg/mL"
"C[C@H]1COc2c(N3CCN(c4ccncn4)CC3)c(F)cc3c(=O)c(C(=O)O)cn1c23 [ML-83-001, (S)-9-fluoro-3-methyl-7-oxo-10-(4-(pyrimidin-4-yl)piperazin-1-yl)-2,3-dihydro-7H-[1,4]oxazino[2,3,4-ij]quinoline-6-carboxylic acid]",–,–,–,–,–,–,–,–,–,–,–,–,–,0.25,8,0.06,4,"MIC (VSE775; VSE775, in µg/mL): 0.25; MIC (EMRSA16; EMRSA16, in µg/mL): 4; MIC (VRE12204): 2; MIC (KP13368; KP13368, +PMBN, in µg/mL): 4; MIC (KP13368; [3]): 64; MIC (PA13437; +PMBN): 32 µg/mL; MIC (M6; M6, +PMBN, in µg/mL): 0.5; MIC (AYE; AYE, +PMBN, in µg/mL): 64; MIC (PA01; PA01, +PMBN, in µg/mL): 1; MIC (PA01; [4]): 32; MIC (EMRSA15; EMRSA15, in µg/mL): 4; MIC (Ab17978; Ab17978, +PMBN, in µg/mL): 1"
C[C@H]1COc2c(N3CC[C@H](Nc4ncccn4)C3)c(F)cc3c(=O)c(C(=O)O)cn1c23 [KSN-L19],2,4,8,4,1,> 32,> 32,4,>32,>32,0.25,8,4,–,–,–,–,–
"C[C@H]1COc2c(N3CC[C@@H](N(C)C4CC4)C3)c(F)cc3c(=O)c(C(=O)O)cn1c23 [KSN-L36, (S)-10-((R)-3-(cyclopropyl(methyl)amino)pyrrolidin-1-yl)-9-fluoro-3-methyl-7-oxo-2,3-dihydro-7H-[1,4]oxazino[2,3,4-ij]quinoline-6-carboxylic acid]",4,0.5-1,32,8,2,32,> 64,2-4,64,16,0.25-0.5,32,0.5-1,–,–,–,–,–
"C[C@H]1COc2c(N3CCC(Nc4ncccn4)C3)c(F)cc3c(=O)c(C(=O)O)cn1c23 (stereo partly drawn) [KSN-82-L7, (3S)-9-fluoro-3-methyl-7-oxo-10-(3-(pyrimidin-2-ylamino)pyrrolidin-1-yl)-2,3-dihydro-7H-[1,4]oxazino[2,3,4-ij]quinoline-6-carboxylic acid]",0.5,1,4,4,0.5,16,> 32,4-8,16-32,8-32,0.06,4,0.5,–,–,–,–,Bacterial burden data ([1]; 20 mg/kg): 6.42E+02 CFU/g and 1.94E+03 CFU/g and 1.60E+03 CFU/g and 3.05E+03 CFU/g and 1.51E+03 CFU/g and 1.18E+04 CFU/g and 2.48E+03 CFU/g and 3.92E+03 CFU/g and 5.78E+02 CFU/g and 1.80E+03 CFU/g; Bacterial burden data ([1]; 50 mg/kg): 5.94E+02 CFU/g and 2.63E+03 CFU/g and 2.00E+03 CFU/g and 1.44E+03 CFU/g and 9.34E+02 CFU/g and 1.14E+03 CFU/g and 2.58E+03 CFU/g and 1.98E+03 CFU/g and 5.78E+02 CFU/g and 1.70E+03 CFU/g
CCn1cc(C(=O)O)c(=O)c2cc(F)c(N3CCNCC3)cc21 [NOR],–,–,–,–,–,–,–,–,–,–,–,–,–,–,–,–,–,MIC (SA4): 64 µg/mL
O=C(O)c1cn(C2CC2)c2cc(N3CCN(Cc4cccc5ccccc45)CC3)c(F)cc2c1=O [ML-77-005],–,–,–,–,–,–,–,–,–,–,–,–,–,0.5,32-64,0.25-8,4,"MIC (SA1): 2 µg/mL; MIC (SA9): 2 µg/mL; MIC (SA5): 2 µg/mL; MIC (SA6): 2 µg/mL; MIC (SA2): 0.5 µg/mL; MIC (SA3): 2 µg/mL; MIC (PA13437; +PMBN): 32 µg/mL; MIC (M6; M6, +PMBN, in µg/mL): 0.5; MIC (SA7): 2 µg/mL; MIC (PA01; PA01, +PMBN, in µg/mL): <0.12-0.25; MIC (EF1): 2 µg/mL; MIC (SE1): 0.25-2; MIC (SA4): 2 µg/mL; MIC (SH1): 4 µg/mL; MIC (SA8): 2 µg/mL; MIC (EF2): 2; MIC (Ab17978; Ab17978, +PMBN): −.12-0.25"
CCn1cc(C(=O)O)c(=O)c2cc(F)c(N3CCN(Cc4cc(=O)[nH]c5ccccc45)CC3)cc21 [ML-77-059],–,–,–,–,–,–,–,–,–,–,–,–,–,>32,16,16-32,32,"MIC (VSE775; VSE775, in µg/mL): >32; MIC (EMRSA16; EMRSA16, in µg/mL): >32; MIC (VRE12204): >32; MIC (KP13368; [3]): >32; MIC (PA13437; Normal (no PMBN)): > 32 µg/mL; MIC (AYE; AYE, Normal (no PMBN), in µg/mL): >32; MIC (PA01; [4]): >32; MIC (EMRSA15; EMRSA15, in µg/mL): >32"
